Columns and labels:
Assay in all cases: two-electrode voltage clamp in Xenopus oocytes
Format in all cases: cell-based
SmGluCl-1 = target: T1, SmGluCl-1 (Schistosoma mansoni, UniProt G4VR43)
T1 construct: full-length subunit co-expressed 1:1 with SmGluCl-2.1 (heteromer; no functional SmGluCl-1 homomer); with SmGluCl-2.1

SmGluCl-3 = target: T2, SmGluCl-3 (Schistosoma mansoni, UniProt T2C5W6)
T2 construct: gene GluCl; full-length subunit, homomeric receptor (KC861384)

SmGluCl-2.1 (SmGluCl-2) = target: T3, SmGluCl-2.1 (SmGluCl-2) (Schistosoma mansoni, UniProt T2C5A6)
T3 construct: gene GluCl; full-length subunit isoform 1, homomeric receptor (KC861382)
T3 sequence (T2C5A6 entry or part of it): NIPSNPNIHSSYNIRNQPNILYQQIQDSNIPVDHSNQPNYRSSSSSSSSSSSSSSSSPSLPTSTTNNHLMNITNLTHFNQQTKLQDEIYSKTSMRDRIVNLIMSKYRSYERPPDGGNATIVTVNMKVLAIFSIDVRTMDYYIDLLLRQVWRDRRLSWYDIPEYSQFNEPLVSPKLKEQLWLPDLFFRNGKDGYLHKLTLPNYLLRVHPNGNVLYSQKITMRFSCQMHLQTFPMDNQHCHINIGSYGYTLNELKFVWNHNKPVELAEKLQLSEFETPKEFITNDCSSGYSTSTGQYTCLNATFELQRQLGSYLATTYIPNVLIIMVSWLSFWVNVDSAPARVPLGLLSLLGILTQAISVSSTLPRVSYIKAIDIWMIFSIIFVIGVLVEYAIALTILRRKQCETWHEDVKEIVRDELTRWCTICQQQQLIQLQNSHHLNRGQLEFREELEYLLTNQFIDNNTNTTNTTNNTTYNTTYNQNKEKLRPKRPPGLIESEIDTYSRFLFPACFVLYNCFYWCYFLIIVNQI

T2 sequence (T2C5W6 entry or part of it): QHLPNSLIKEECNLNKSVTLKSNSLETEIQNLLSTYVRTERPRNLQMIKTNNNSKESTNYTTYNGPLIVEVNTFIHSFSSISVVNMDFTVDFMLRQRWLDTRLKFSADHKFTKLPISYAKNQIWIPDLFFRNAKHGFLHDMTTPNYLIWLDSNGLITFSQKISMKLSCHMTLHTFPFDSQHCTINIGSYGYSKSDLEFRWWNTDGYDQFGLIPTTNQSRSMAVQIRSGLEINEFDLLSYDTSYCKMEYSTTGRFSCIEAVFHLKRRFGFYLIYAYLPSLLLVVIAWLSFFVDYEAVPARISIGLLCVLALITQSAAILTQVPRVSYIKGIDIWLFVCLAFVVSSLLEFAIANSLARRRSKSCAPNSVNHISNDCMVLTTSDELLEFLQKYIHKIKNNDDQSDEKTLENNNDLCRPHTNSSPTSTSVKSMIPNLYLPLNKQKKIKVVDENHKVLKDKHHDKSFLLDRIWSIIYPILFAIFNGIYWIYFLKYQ
T1 sequence (T2C5A6 entry or part of it): as the sequence (T2C5A6 entry or part of it) above
T1 sequence (G4VR43 entry or part of it): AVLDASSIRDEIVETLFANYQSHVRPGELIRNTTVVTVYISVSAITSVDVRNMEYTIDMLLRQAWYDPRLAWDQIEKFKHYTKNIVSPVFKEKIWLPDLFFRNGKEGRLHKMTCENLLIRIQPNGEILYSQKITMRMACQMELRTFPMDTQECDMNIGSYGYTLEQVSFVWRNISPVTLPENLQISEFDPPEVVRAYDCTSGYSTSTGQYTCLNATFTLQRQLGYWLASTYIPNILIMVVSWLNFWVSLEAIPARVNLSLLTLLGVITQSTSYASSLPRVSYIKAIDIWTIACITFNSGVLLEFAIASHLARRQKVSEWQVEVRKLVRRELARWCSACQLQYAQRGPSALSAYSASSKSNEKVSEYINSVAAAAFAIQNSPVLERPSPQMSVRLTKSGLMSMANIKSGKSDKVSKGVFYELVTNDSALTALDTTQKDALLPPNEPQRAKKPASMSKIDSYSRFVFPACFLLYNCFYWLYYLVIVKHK

SMILES: N[C@@H](CCC(=O)O)C(=O)O [L-glutamate]
- EC50 (SmGluCl-1): 26.3 ± 2 µM
- EC50 (SmGluCl-3): 6.9 ± 0.5 µM
- EC50 (SmGluCl-2.1 (SmGluCl-2)): 11.8 ± 0.6 µM
